Results on 2 compounds are retold here after article PMC9693971, “Fast Screening of Protein Tyrosine Phosphatase 1B Inhibitor from Salvia miltiorrhiza Bge by Cell Display-Based Ligand Fishing” (Molecules, 2022).

Assay [1] addresses T1, Protein tyrosine phosphatase 1B (PTP1B) (Homo sapiens, UniProt P18031).
T1 construct: gene PTPN1
T1 sequence (P18031 1-435): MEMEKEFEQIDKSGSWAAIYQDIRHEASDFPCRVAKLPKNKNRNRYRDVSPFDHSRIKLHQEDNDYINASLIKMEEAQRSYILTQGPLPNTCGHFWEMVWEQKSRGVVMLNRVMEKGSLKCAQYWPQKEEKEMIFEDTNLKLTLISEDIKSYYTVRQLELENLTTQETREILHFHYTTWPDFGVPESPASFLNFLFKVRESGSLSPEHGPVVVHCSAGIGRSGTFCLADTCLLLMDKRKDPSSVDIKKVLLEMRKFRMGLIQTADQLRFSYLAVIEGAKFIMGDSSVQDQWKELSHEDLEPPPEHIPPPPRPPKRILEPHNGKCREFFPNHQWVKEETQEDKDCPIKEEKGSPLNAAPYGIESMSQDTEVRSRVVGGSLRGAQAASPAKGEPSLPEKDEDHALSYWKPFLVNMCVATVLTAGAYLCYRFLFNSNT
The assay is described as follows: pNPP phosphatase inhibition assay with Lineweaver-Burk kinetics (Ki […], Kis […]); also fished out by PTP1B displayed on E. coli. The class given is biochemical.

The target of assay [2] is T1, Protein tyrosine phosphatase 1B (PTP1B). The assay is described as follows: ligand fishing with E. coli surface-displayed PTP1B, HPLC readout, with control cells; not fished by MNPs-PTP1B. The class given is cell-based.

For orientation: IC50 means the point on the concentration scale where inhibition reaches its midpoint.

The structures appear in SMILES notation.

In assay [1], `O=C(/C=C/c1ccc(O)c2c1[C@H](C(=O)O[C@H](Cc1ccc(O)c(O)c1)C(=O)O)[C@@H](c1ccc(O)c(O)c1)O2)O[C@H](Cc1ccc(O)c(O)c1)C(=O)O` [salvianolic acid B] yielded an IC50 of 23.3 µM. Consider `C[C@@H]1O[C@@H](OC[C@H]2O[C@@H](Oc3c(-c4ccc(O)c(O)c4)oc4cc(O)cc(O)c4c3=O)[C@H](O)[C@@H](O)[C@@H]2O)[C@H](O)[C@H](O)[C@H]1O` [II, rutin], for which, in assay [2], the “ligand fishing with E. coli surface-displayed PTP1B, HPLC readout, with control” value is listed as “only EC-PTP1B extracted the positive compound rutin, indicating that EC-PTP1B was efficient for fishing the enzyme ligand”.
